{"source": "patent US20240002397A1", "about": "“3-AMINO PYRROLIDINE AND PIPERIDINE MACROCYCLIC OREXIN RECEPTOR AGONISTS” (Merck Sharp & Dohme LLC, priority 2020, published 2024)"}
{"target": "T1, human OX2R (Homo sapiens, UniProt O43614)", "T1 sequence (O43614 1-444)": "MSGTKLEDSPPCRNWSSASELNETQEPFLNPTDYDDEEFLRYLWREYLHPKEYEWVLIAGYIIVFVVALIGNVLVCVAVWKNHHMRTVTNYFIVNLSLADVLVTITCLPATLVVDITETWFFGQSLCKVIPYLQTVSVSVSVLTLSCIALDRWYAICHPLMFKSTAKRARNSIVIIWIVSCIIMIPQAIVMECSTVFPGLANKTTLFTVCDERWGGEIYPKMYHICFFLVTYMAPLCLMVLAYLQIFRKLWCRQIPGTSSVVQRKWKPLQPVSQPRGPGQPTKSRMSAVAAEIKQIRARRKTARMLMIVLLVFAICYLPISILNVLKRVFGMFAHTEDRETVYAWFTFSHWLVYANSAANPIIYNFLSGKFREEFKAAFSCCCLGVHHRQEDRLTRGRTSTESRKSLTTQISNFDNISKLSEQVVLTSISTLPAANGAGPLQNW", "experiment": "IPOne (IP-1) orexin receptor agonist assay in CHO cells expressing human OX2R", "settings": "CHO, hOX2R IP-One; percentage of mean max effect of a reference compound at 1 uM with 100% activity", "units": {"Emax": "%"}}
{"smiles": "COc1cc2nc(c1)C1CCC(CC1)OCC1[C@@H](NS(=O)(=O)C(F)F)C[C@@H](C)N1C(=O)OCCCO2", "note": "(stereo partly shown) [Example 108, 1,1-difluoro-N-((2^1R,2^4R,5^2R,5^3S,5^5R)-14-methoxy-5^5-methyl-6-oxo-3,7,11-trioxa-1(2,6)-pyridina-5(2,1)-pyrrolidina-2(1,4)-cyclohexanacycloundecaphane-5^3-yl)methanesulfonamide]", "Emax": 104}
{"smiles": "C[C@@H]1C[C@H](NS(C)(=O)=O)C2COC3CCC(CC3)c3cccc(c3F)OCCCOC(=O)N21", "note": "(stereo partly shown) [Example 47, N-((2^1S,2^4S, 5^2R,5^3S,5^5R)-1^2-fluoro-5^5-methyl-6-oxo-3,7,11-trioxa-5(2,1)-pyrrolidina-1(1,3)-benzena-2(1,4)-cyclohexana-cyclounde-caphane-5^3-yl)methane-sulfonamide]", "Emax": 102}
{"smiles": "CCOc1cc2nc(c1)C1CCC(CC1)OCC1[C@@H](NS(C)(=O)=O)C[C@@H](C)N1C(=O)OCCO2", "note": "(stereo partly shown) [Example 77, N-((2^1S,2^4S,5^2R,5^3S,5^5R)-1^4-ethoxy-5^5-methyl-6-oxo-3,7,10-trioxa-1(2,6)-pyridina-5(2,1)-pyrrolidina-2(1,4)-cyclohexanacyclodecaphane-5^3-yl)methanesulfonamide]", "Emax": 99.5}
{"smiles": "COc1ccc2nc1OCCCOC(=O)N1C(COC3CCC2CC3)[C@@H](NS(C)(=O)=O)C[C@H]1C", "note": "(stereo partly shown) [Example 76, N-((2^1S,2^4S,5^2R,5^3S,5^5R)-1^5-methoxy-5^5-methyl-6-oxo-3,7,11-trioxa-1(2,6)-pyridina-5(2,1)-pyrrolidina-2(1,4)-cyclohexanacycloundecaphane-5^3-yl)methanesulfonamide]", "Emax": 101}
{"smiles": "C[C@@H]1C[C@H](NS(C)(=O)=O)[C@@H]2COC3CCC(CC3)c3ccccc3CCOC(=O)N12", "note": "[Example 5, N-((2^1R,2^4R,5^2R,5^3S, 5^5R)-5^5-methyl-6-oxo-3,7-dioxa-5(2,1)-pyrrolidina-1(1,2)-benzena-2(1,4)-cyclo-hexanacyclonaphane-5^3-yl)methane sulfonamide]", "Emax": 100}
{"smiles": "COC[C@@H]1C[C@H](NS(C)(=O)=O)C2COC3CCC(CC3)c3cc(C(F)(F)F)cc(n3)OCCCOC(=O)N21", "note": "(stereo partly shown) [Example 83, N-((2^1S,2^4S,5^2R,5^3S,5^5S)-5^5-(methoxymethyl)-6-oxo-1^4-(trifluoromethyl)-3,7,11-trioxa-1(2,6)-pyridina-5(2,1)-pyrrolidina-2(1,4)-cyclohexanacycloundecaphane-5^3-yl)methanesulfonamide]", "Emax": 102}
{"smiles": "COC[C@@H]1C[C@H](NS(C)(=O)=O)C2COC3CCC(CC3)c3nc(ccc3C(F)(F)F)OCCOC(=O)N21", "note": "(stereo partly shown) [Example 87, N-((2^1S,2^4S,5^2R,5^3S,5^5S)-5^5-(methoxymethyl)-6-oxo-1^3-(trifluoromethyl)-3,7,10-trioxa-1(2,6)-pyridina-5(2,1)-pyrrolidina-2(1,4)-cyclohexanacyclodecaphane-5^3-yl)methanesulfonamide]", "Emax": 100}
{"smiles": "CN(C)C[C@@H]1C[C@H](NS(C)(=O)=O)C2COC3CCC(CC3)c3cc(C(F)F)cc(n3)OCCCOC(=O)N21", "note": "(stereo partly shown) [Example 100, N-((2^1S,2^4S,5^2R,5^3S,5^5S)-1^4-(difluoromethyl)-5^5-((dimethylamino)methyl)-6-oxo-3,7,11-trioxa-1(2,6)-pyridina-5(2,1)-pyrrolidina-2(1,4)-cyclohexanacycloundecaphane-5^3-yl)methanesulfonamide]", "Emax": 102}
{"smiles": "Cc1ccc2nc1C1CCC(CC1)OCC1[C@@H](NS(C)(=O)=O)C[C@@H](C)N1C(=O)OCCCO2", "note": "(stereo partly shown) [Example 80, N-((2^1S,2^4S,5^2R,5^3S,5^5R)-1^3,5^5-dimethyl-6-oxo-3,7,11-trioxa-1(2,6)-pyridina-5(2,1)-pyrrolidina-2(1,4)-cyclohexanacycloundecaphane-5^3-yl)methanesulfonamide]", "Emax": 99.4}
{"target": "T1, human OX2R", "experiment": "IPOne (IP-1) orexin receptor agonist assay in CHO cells expressing human OX2R", "settings": "hOX2R IP-One; percentage of mean max effect of a reference compound at 1 uM with 100% activity", "units": {"Emax (%)": "%"}}
{"smiles": "CCS(=O)(=O)NC1CC(C)N2C(=O)OCCOc3cc(OC)cc(n3)C3CCC(CC3)OCC12", "note": "(stereo not shown) [Example 103, N-((2^1R,2^4R,5^2R,5^3S,5^5R)-1^4-methoxy-5^5-methyl-6-oxo-3,7,10-trioxa-1(2,6)-pyridina-5(2,1)-pyrrolidina-2(1,4)-cyclohexanacyclodecaphane-5^3-yl)ethanesulfonamide]", "Emax (%)": 103.0}
